Reference: patent publication US12655116B2, “Substituted isophthalic acid diamides” (Bayer Aktiengesellschaft, priority 2020, dated 2026)

Assays:
ALOMY = test: Pre-emergence herbicidal action against ALOMY; type: in vivo, Alopecurus myosuroides; details: Alopecurus myosuroides, 504 h, pre-emergence; for pest or weed control at 80 g/ha: scored visually after 3 weeks vs untreated controls (100% = plants have died, 0% = like control plants); for pest or weed control at 20 g/ha / pest or weed control at 320 g/ha: scored visually after 3 weeks, 100% = plants have died, 0% = like control plants
Summary of the method: (§1)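 Pre-emergence soil-surface spray of formulated compound (WP or EC; 600 to 800 l/ha; 0.2% wetting agent) over seeds sown in sandy loam. After 3 weeks under greenhouse conditions, damage is estimated visually in percent against untreated plants.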

VIOTR = test: Pre-emergence herbicidal action against VIOTR; type: in vivo, Viola tricolor; details: Viola tricolor, 504 h; for pest or weed control at 20 g/ha: dosage 20 g/ha; for pest or weed control at 80 g/ha: dosage 80 g/ha; for pest or weed control at 320 g/ha: dosage 320 g/ha
Summary of the method: as §1

harmful plants = test: Comparative experiments: herbicidal pre-emergence action versus compounds known from D1 (WO 2012/028579 A1); type: in vivo; set-up: key to Herbicidal action against ALOMY / Herbicidal action against AVEFA / Herbicidal action against SETVI / Herbicidal action against AMARE / Herbicidal action against STEME / Herbicidal action against VIOTR / Herbicidal action against HORMU / Herbicidal action against MATIN / Herbicidal action against ABUTH: % herbicidal activity: 0 = like control, 100 = plants died
Excerpt: (§2) Seeds of monocotyledonous and dicotyledonous weed plants and crop plants are laid out in sandy loam soil in wood-fiber pots and covered with soil. The compounds of the invention, formulated in the form of wettable powders (WP) or as emulsion concentrates (EC), are then applied to the surface of the covering soil in the form of an aqueous suspension or emulsion at a water application rate equivalent to 600 to 800 l/ha, with addition of 0.2% wetting agent. After the treatment, the pots are placed in a greenhouse and kept under good growth conditions for the trial plants. The damage to the test plants is scored visually after a test period of 3 weeks by comparison with untreated controls (herbicidal activity in percent (%): 100% activity=the plants have died, 0% activity=like control plants). […] The tables below illustrate, in an illustrative manner, the post-emergence herbicidal action of the compounds of the invention, the herbicidal activity being stated in percent. In the experiments that follow, herbicidal action of numerous inventive compounds and the structurally closest compounds known from D1 (WO 2012/028579 A1) were compared under the above-specified conditions by the pre-emergence and post-emergence method. The example numbers given in the tables relate to the compounds disclosed in the respective documents.

PHBPU = test: Pre-emergence herbicidal action against PHBPU; type: in vivo, Pharbitis purpurea; details: Ipomoea purpurea, 504 h; for pest or weed control at 80 g/ha: dosage 80 g/ha; for pest or weed control at 320 g/ha: dosage 320 g/ha
Summary of the method: as §1

CYPES [1] = test: Pre-emergence herbicidal action against CYPES; type: in vivo; details: Cyperus esculentus, 504 h; for pest or weed control at 20 g/ha / pest or weed control at 80 g/ha: scored visually after 3 weeks, 100% = plants have died, 0% = like control plants
Excerpt: as §2, with “percent.” for “percent. In the experiments that follow, herbicidal action of numerous inventive compounds and the structurally closest compounds known from D1 (WO 2012/028579 A1) were compared under the above-specified conditions by the pre-emergence and post-emergence method. The example numbers given in the tables relate to the compounds disclosed in the respective documents.”

CYPES [2] = test: Post-emergence herbicidal action against CYPES; type: in vivo, Cyperus esculentus; details: 80 g/ha, visual assessment about 3 weeks after treatment, 100% = plants have died, 0% = like control plants
Description: Seeds of monocotyledonous and dicotyledonous weed and crop plants are laid out in sandy loam soil in wood-fiber pots, covered with soil and cultivated in a greenhouse under good growth conditions. 2 to 3 weeks after sowing, the test plants are treated at the one-leaf stage. The compounds of the invention, formulated in the form of wettable powders (WP) or as emulsion concentrates (EC), are then sprayed onto the green parts of the plants in the form of an aqueous suspension or emulsion at a water application rate equivalent to 600 to 800 l/ha, with addition of 0.2% wetting agent. After the test plants have been left to stand in the greenhouse under optimal growth conditions for about 3 weeks, the action of the preparations is assessed visually in comparison to untreated controls (herbicidal action in percent (%): 100% activity=the plants have died, 0% activity=like control plants). […] The tables below illustrate, in an illustrative manner, the post-emergence herbicidal action of the compounds of the invention, the herbicidal activity being stated in percent.

SETVI = test: Pre-emergence herbicidal action against SETVI; type: in vivo, Setaria viridis; details: Setaria viridis, 504 h; for pest or weed control at 80 g/ha: dosage 80 g/ha; for pest or weed control at 320 g/ha: dosage 320 g/ha
Summary of the method: as §1

AMARE = test: Pre-emergence herbicidal action against AMARE; type: in vivo, Amaranthus retroflexus; details: Amaranthus retroflexus, 504 h, 100% = plants have died, 0% = like control plants; for pest or weed control at 20 g/ha / pest or weed control at 80 g/ha: scored visually after 3 weeks vs untreated controls; for pest or weed control at 320 g/ha: scored visually after 3 weeks
Summary of the method: as §1

Compound	pest or weed control at 80 g/ha (ALOMY)	pest or weed control at 20 g/ha (ALOMY)	pest or weed control at 320 g/ha (ALOMY)	pest or weed control at 20 g/ha (VIOTR)	pest or weed control at 80 g/ha (VIOTR)	pest or weed control at 320 g/ha (VIOTR)	Herbicidal action against ABUTH (harmful plants; 20 g a.i./ha)	Herbicidal action against AVEFA (harmful plants; 20 g a.i./ha)	Herbicidal action against MATIN (harmful plants; 20 g a.i./ha)	Herbicidal action against VIOTR (harmful plants; 20 g a.i./ha)	pest or weed control at 80 g/ha (PHBPU)	pest or weed control at 320 g/ha (PHBPU)	pest or weed control at 20 g/ha (CYPES [1])	pest or weed control at 80 g/ha (CYPES [1])	pest or weed control at 320 g/ha (CYPES [1])	Post-emergence action at 80 g/ha against CYPES in % (CYPES [2])	pest or weed control at 80 g/ha (SETVI)	pest or weed control at 320 g/ha (SETVI)	pest or weed control at 20 g/ha (AMARE)	pest or weed control at 80 g/ha (AMARE)	other results
CCn1nnnc1NC(=O)c1ccc(C(F)(F)F)c(C(=O)NC)c1Cl [Example 2-129]	100%	90%	100%	100%	100%	100%	100	100	100	100	90%	100%	100%	100%	100%	90%	100%	100%	100%	100%	Herbicidal action against POLCO (harmful plants; 20 g a.i./ha, POLCO): 100; Herbicidal action against SETVI (harmful plants; 20 g a.i./ha, SETVI): 100; pest or weed control at 20 g/ha (SETVI; dosage 20 g/ha): 100%; pest or weed control at 320 g/ha (AMARE): 100%
CNC(=O)c1c(C(F)(F)F)ccc(C(=O)Nc2nnnn2C)c1Cl [Example 1-129]	100%	90%	100%	100%	100%	100%	100	100	100	100	90%	100%	90%	90%	100%	80%	100%	100%	100%	100%	Herbicidal action against AMARE (harmful plants; 20 g a.i./ha, AMARE): 100; Herbicidal action against STEME (harmful plants; 20 g a.i./ha): 100; Herbicidal action against ABUTH (harmful plants; 80 g a.i./ha): 100; Herbicidal action against ALOMY (harmful plants; 80 g a.i./ha, ALOMY): 100; Herbicidal action against AVEFA (harmful plants; 80 g a.i./ha): 100; Herbicidal action against MATIN (harmful plants; 80 g a.i./ha): 100; Herbicidal action against STEME (harmful plants; 80 g a.i./ha): 100; Herbicidal action against VIOTR (harmful plants; 80 g a.i./ha): 100; pest or weed control at 320 g/ha (AMARE): 100%
